Patent publication US20240067651A1 (Biohaven Therapeutics Ltd., priority 2019, published 2024)
Read-outs that look alike come from different tables or passages of the source.

What was measured:
[1] = Stability in Simulated Gastric Fluid (SGF); format: in vitro ADME; set-up: key: % parent compound remaining relative to 0-minute sample
Method in brief: (§1)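 Compound at 2 μg/mL final was incubated at 37° C with orbital shaking in SGF containing pepsin (pH 1.2) or SIF containing pancreatin (pH 6.8), sampled from 0 to 60 minutes. Parent remaining was measured by LC-MS/MS relative to the 0-minute sample; half-life came from ln(% remaining) versus time when enough points existed.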

Caco-2 monolayer = experiment: Caco-2 Permeability Assay; format: in vitro ADME, human
Method in brief: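 Caco-2 monolayers cultured 21 days (TEER >600 […]); test article at 10 μM in HBSS/HEPES pH 7.4 transport medium, dosed apical or basolateral, ±Pgp inhibitor. Incubated 90 min at 37 °C; both compartments quantified by LC-MS/MS. Papp (A→B, B→A), efflux ratio and % recovery calculated.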

[2] = Stability in Simulated Intestinal Fluid (SIF); format: in vitro ADME; set-up: key: % parent compound remaining relative to 0-minute sample
Method in brief: as §1

Plasma Stability = format: in vitro ADME, human
Method in brief: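 Compounds incubated at 1 μM in fresh human plasma for 1 hour at 37° C, then protein-precipitated with acetonitrile/formic acid containing internal standard. Remaining parent measured by LC-MS/MS in triplicate, expressed as percent of control remaining.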

[3] = simulated gastric fluid, remaining at 1 h
[4] = simulated intestinal fluid, remaining at 1 h
[5] = % remaining at 1 h in simulated gastric fluid
[6] = % remaining at 1 h in simulated intestinal fluid
[7] = % remaining at 1 h in human plasma
[8] = % remaining at 1 h, SGF with pepsin pH 1.2, 2 μg/mL, 37° C.
[9] = % remaining at 1 h, SIF with pancreatin pH 6.8, 2 μg/mL, 37° C.
[10] = % remaining at 1 h, human plasma, 1 μM, 37° C.

Which SGF ([1]; % remaining @ 1 h) does the source give for `CC(C)C[C@H](NC(=O)OC(C)(C)C)C(=O)OCSc1nc(=O)c2c(ccn2COC(=O)[C@H](CC(C)C)NC(=O)OC(C)(C)C)n1CCOC(C)C` [Example 315, {[5-({[(2S)-2-{[ (tert-butoxy)carbonyl]amino}-4-methylpentanoyl]oxy}methyl)-4-oxo-1-[2-(propan-2-yloxy)ethyl]-1H,4H,5H-pyrrolo[3,2-d]pyrimidin-2-yl]sulfanyl} methyl (2S)-2-{[(tert-butoxy)carbonyl]amino}-4-methylpentanoate] here?
The SGF was 78%@ 1 h.

What about the “Caco-2 Papp” value (Caco-2 monolayer; Caco-2) of the same molecule?
The value was 14.1 ×10⁻⁶ cm/s.

And the SIF ([2]; % remaining @ 1 h)?
The SIF was 5%@ 1 h.

And the “human Plasma stability” value (Plasma Stability; % remaining @ 1 h)?
Its value is 7%@ 1 h.

What does the source list for “tert-butyl N-[2-(2-{[{{4-oxo-1-[2-(propan-2-yloxy)ethyl]-2-sulfanylidene-1H,2H,3H,4H,5H-pyrrolo[3,2-d]pyrimidin-5-yl}methoxy)carbonyl]amino}ethoxy) ethyl]carbamate [Example 372]”?
SGF [1, 3]: 85% remaining; Caco-2 Papp (Caco-2 monolayer; Caco-2 monolayer): 11.7 ×10⁻⁶ cm/s; SIF [2, 4]: 60% remaining; human Plasma stability (Plasma Stability; human plasma, remaining at 1 h): 0% remaining

With “1-tert-butyl 2-{4-oxo-1-[2-(propan-2-yloxy)ethyl]-2-sulfanylidene-1H,2H,3H,4H,5H-pyrrolo[3,2-d]pyrimidin-5-yl}methyl (2R)-pyrrolidine-1,2-dicarboxylate [Example 393]” as the molecule, how does the SGF [1, 3] read?
The SGF was 99% remaining.

And the “Caco-2 Papp” value (Caco-2 monolayer; Caco-2 monolayer)?
Its value is 0.11 ×10⁻⁶ cm/s.

What about the SIF [2, 4] of the same molecule?
Its SIF is 94% remaining.

What about the “human Plasma stability” value (Plasma Stability; human plasma, remaining at 1 h) of the same molecule?
The value was 92% remaining.

What does the source list for `CC(C)OCCn1c(=S)[nH]c(=O)c2c1ccn2CO` [Example 197]?
SGF ([1]; % remaining at 1 h in simulated gastric fluid, the 15th table): 98% remaining; Caco-2 Papp (nm/s) (Caco-2 monolayer; Caco-2 monolayer, the 15th table): unstable; SIF ([2]; % remaining at 1 h in simulated intestinal fluid, the 15th table): 55% remaining; human Plasma stability (Plasma Stability; % remaining at 1 h in human plasma, the 15th table): 86% remaining

With `CC(C)OCCn1c(=S)[nH]c(=O)c2c1ccn2COC(=O)CCNC(=O)[C@@H]1CCC(=O)N1C(=O)OCc1ccccc1.O=C(O)C(F)(F)F` [Example 17, trifluoroacetic acid benzyl (5S)-2-oxo-5-{[3-oxo-3-({4-oxo-1-[2-(propan-2-yloxy)ethyl]-2-sulfanylidene-1H,2H,3H,4H,5H-pyrrolo[3,2-d]pyrimidin-5-yl}methoxy)propyl]carbamoyl} pyrrolidine-1-carboxylate] as the molecule, how does the SGF [1, 5] read?
The SGF was 99% remaining.

What about the “Caco-2 Papp” value (Caco-2 monolayer; Caco-2 monolayer) of the same molecule?
Its value is 0.368 ×10⁻⁶ cm/s.

What about the SIF [2, 6] of the same molecule?
The SIF was 3% remaining.

What about the “human Plasma stability” value (Plasma Stability; [7]) of the same molecule?
Its value is 38% remaining.

With `CC(C)OCCn1c(=S)[nH]c(=O)c2c1ccn2COC(=O)CCCCNC(=O)[C@@H]1CCC(=O)N1C(=O)OCc1ccccc1.O=C(O)C(F)(F)F` [Example 16, trifluoroacetic acid benzyl (5S)-2-oxo-5-{[5-oxo-5-({4-oxo-1-[2-(propan-2-yloxy)ethyl]-2-sulfanylidene-1H,2H,3H,4H,5H-pyrrolo[3,2-d]pyrimidin-5-yl}methoxy)pentyl]carbamoyl} pyrrolidine-1-carboxylate] as the molecule, how does the SGF [1, 5] read?
Its SGF is 96% remaining.

And the “Caco-2 Papp” value (Caco-2 monolayer; Caco-2 monolayer)?
Its value is 0.903 ×10⁻⁶ cm/s.

And the SIF [2, 6]?
Its SIF is 93% remaining.

And the “human Plasma stability” value (Plasma Stability; [7])?
Its value is 21% remaining.

With “{4-oxo-1-[2-(propan-2-yloxy)ethyl]-2-sulfanylidene-1H,2H,3H,4H,5H-pyrrolo[3,2-d]pyrimidin-5-yl}methyl (2R)-2-{[(tert-butoxy)carbonyl]amino}propanoate [Example 291]” as the molecule, how does the SGF ([1]; % remaining @ 1 h) read?
Its SGF is 66% @ 1 h.

What about the “Caco-2 Papp” value (Caco-2 monolayer) of the same molecule?
Its value is 21.9 ×10⁻⁶ cm/s.

And the SIF ([2]; % remaining @ 1 h)?
Its SIF is 30% @ 1 h.

And the “human Plasma stability” value (Plasma Stability; % remaining @ 1 h)?
Its value is 0% @ 1 h.

For “tert-butyl N-[2-(2-{[(1-{4-oxo-1-[2-(propan-2-yloxy)ethyl]-2-sulfanylidene-1H,2H,3H,4H,5H-pyrrolo[3,2-d]pyrimidin-5-yl}ethoxy)carbonyl]amino}eth-oxy)ethyl]carbamate [Example 375]”, which SGF [1, 3] is on record?
Its SGF is 89% remaining.

And the “Caco-2 Papp” value (Caco-2 monolayer; Caco-2 monolayer)?
The value was <0.175 ×10⁻⁶ cm/s.

And the SIF [2, 4]?
Its SIF is 99% remaining.

What about the “human Plasma stability” value (Plasma Stability; human plasma, remaining at 1 h) of the same molecule?
The value was 99% remaining.

With “(2R)-2-amino-4-(methylsulfanyl)-N-[2-(2-{[{{4-oxo-1-[2-(propan-2-yloxy)ethyl]-2-sulfanylidene-1H,2H,3H,4H,5H-pyrrolo[3,2-d]pyrimidin-5-yl}methoxy)carbonyl]oxy}ethoxy)eth-yl]butanamide; trifluoroacetic acid [Example 390]” as the molecule, how does the SGF [1, 3] read?
Its SGF is 100% remaining.

And the “Caco-2 Papp” value (Caco-2 monolayer; Caco-2 monolayer)?
Its value is 0.49 ×10⁻⁶ cm/s.

And the SIF [2, 4]?
The SIF was 64% remaining.

And the “human Plasma stability” value (Plasma Stability; human plasma, remaining at 1 h)?
Its value is 0% remaining.

For `CCN(C)C(=O)OCSc1nc(=O)c2c(ccn2COC(=O)N(C)CC)n1CCOC(C)C.O=C(O)C(F)(F)F` [Example 169, trifluoroacetic acid {2-[{{[ethyl(methyl)carba-moyl]oxy}methyl)sulfanyl]-4-oxo-1-[2-(propan-2-yloxy)ethyl]-1H,4H,5H-pyrrolo[3,2-d]pyrimidin-5-yl}methyl N-ethyl-N-methylcarbamate], which SGF ([1]; % @ 1 h (remaining) in simulated gastric fluid) is on record?
Its SGF is 99% @ 1 h.

What about the “Caco-2 Papp” value (Caco-2 monolayer; Caco-2 monolayer) of the same molecule?
The value was 10.9 ×10⁻⁶ cm/s.

And the SIF ([2]; % @ 1 h (remaining) in simulated intestinal fluid)?
The SIF was 81% @ 1 h.

What about the “human Plasma stability” value (Plasma Stability; % @ 1 h (remaining) in human plasma) of the same molecule?
Its value is 89% @ 1 h.

With `CSCC[C@H](N)C(=O)NCCC(=O)OCn1ccc2c1c(=O)[nH]c(=S)n2CCOC(C)C.O=C(O)C(F)(F)F` [Example 32, trifluoroacetic acid {4-oxo-1-[2-(propan-2-yloxy)ethyl]-2-sulfanylidene-1H,2H,3H,4H,5H-pyrrolo [3,2-d]pyrimidin-5-yl} methyl 3-[(2S)-2-amino-4-(methylsulfanyl)butanamido]propanoate] as the molecule, how does the SGF [1, 5] read?
The SGF was 97% remaining.

What about the “Caco-2 Papp” value (Caco-2 monolayer; Caco-2 monolayer) of the same molecule?
Its value is 0.147 ×10⁻⁶ cm/s.

What about the SIF [2, 6] of the same molecule?
The SIF was 33% remaining.

What about the “human Plasma stability” value (Plasma Stability; [7]) of the same molecule?
The value was 17% remaining.

For `COCCOCCOC(=O)OCn1c(=O)c2c(ccn2COC(=O)OCCOCCOC)n(CCOC(C)C)c1=S` [Example 106, {3-[{{[2-(2-methoxyethoxy)ethoxy]carbonyl}oxy)methyl]-4-oxo-1-[2-(propan-2-yloxy)ethyl]-2-sulfanylidene-1H,2H,3H,4H,5H-pyrrolo[3,2-d]pyrimidin-5-yl} methyl 2-(2-methoxyethoxy)ethyl carbonate], which SGF [1, 8] is on record?
Its SGF is 100%.

And the Caco-2 Papp (Caco-2 monolayer; unit inferred)?
The Caco-2 Papp was 13.9 ×10⁻⁶ cm/s.

What about the SIF [2, 9] of the same molecule?
Its SIF is 1%.

What about the “human Plasma stability” value (Plasma Stability; [10]) of the same molecule?
Its value is 2%.

For `CC(C)C[C@H](NC(=O)OC(C)(C)C)C(=O)OCCCCC(=O)OCn1c(=O)c2c(ccn2COC(=O)CCCCOC(=O)[C@H](CC(C)C)NC(=O)OC(C)(C)C)n(CCOC(C)C)c1=S` [Example 344, 5-[(3-{[(5-{[(2S)-2-{[(tert-butoxy)carbonyl]amino}-4-methylpentanoyl]oxy}penta-noyl)oxy]methyl}-4-oxo-1-[2-(propan-2-yloxy)ethyl]-2-sulfanylidene-1H,2H,3H,4H,5H-pyrrolo[3,2-d]pyrimidin-5-yl)methoxy]-5-oxopentyl (2S)-2-{[(tert-butoxy)carbonyl]amino}-4-methylpentanoate], which SGF ([1]; % remaining @ 1 h) is on record?
The SGF was 100% remaining.

What about the “Caco-2 Papp” value (Caco-2 monolayer; Caco-2) of the same molecule?
The value was 2.46 ×10⁻⁶ cm/s.

And the SIF ([2]; % remaining @ 1 h)?
Its SIF is 26% remaining.

And the “human Plasma stability” value (Plasma Stability; % remaining @ 1 h)?
The value was 28% remaining.

What does the source list for `CC(C)OCCn1c(=S)[nH]c(=O)c2c1ccn2C(=O)NCCOCCNC(=O)[C@H](NC(=O)OC(C)(C)C)C(C)C` [Example 378, tert-butyl N-[(1R)-2-methyl-1-({2-[2-({4-oxo-1-[2-(propan-2-yloxy)ethyl]-2-sulfanylidene-1H,2H,3H,4H,5H-pyrrolo[3,2-d]pyrimidine-5-carbonyl}amino)ethoxy]ethyl}carba-moyl)propyl]carbamate]?
SGF ([1]; simulated gastric fluid, bare number, unit or time not given): 98; Caco-2 Papp (Caco-2 monolayer; Caco-2 monolayer): 0.0903 ×10⁻⁶ cm/s; SIF ([2]; simulated intestinal fluid, bare number, unit or time not given): 96; human Plasma stability (Plasma Stability; human plasma, remaining at 1 h): 93% remaining

What does the source list for `CC(C)OCCn1c(=S)[nH]c(=O)c2c1ccn2COC(=O)[C@H]1CCCN1C(=O)OC(C)(C)C` [Example 3, 1-tert-butyl 2-{4-oxo-1-[2-(propan-2-yloxy)ethyl]-2-sulfanylidene-1H,2H,3H,4H,5H-pyrrolo[3,2-d]pyrimidin-5-yl} methyl (2R)-pyrrolidine-1,2-dicarboxylate]?
SGF [1, 8]: 84%; Caco-2 Papp (Caco-2 monolayer; donor 10 μM, 90 minutes, 37° C., direction not given): 41.9 ×10⁻⁶ cm/s; SIF [2, 9]: 89%; human Plasma stability (Plasma Stability; [10]): 99%

For “5-{[2-({[(5-{[(2R)-2-{[(tert-butoxy)carbonyl]amino}-4-methylpentanoyl]oxy}penta-noyl)oxy]methyl}sulfanyl)-4-oxo-1-[2-(propan-2-yloxy)ethyl]-1H,4H,5H-pyrrolo[3,2-d]pyrimidin-5-yl]methoxy}-5-oxopentyl (2R)-2-{[(tert-butoxy)carbonyl]amino}-4-methylpentanoate [Example 348]”, which SGF [1, 3] is on record?
The SGF was 88% remaining.

And the “Caco-2 Papp” value (Caco-2 monolayer; Caco-2 monolayer)?
Its value is <0.0965 ×10⁻⁶ cm/s.

And the SIF [2, 4]?
The SIF was 20% remaining.

And the “human Plasma stability” value (Plasma Stability; human plasma, remaining at 1 h)?
Its value is 33% remaining.

Which SGF [1, 5] does the source give for `CC(C)OCCn1c(SCOC(=O)OCCOCCN)nc(=O)c2c1ccn2COC(=O)OCCOCCN.O=C(O)C(F)(F)F.O=C(O)C(F)(F)F` [Example 124] here?
The SGF was 67% remaining.

And the “Caco-2 Papp” value (Caco-2 monolayer; Caco-2 monolayer)?
The value was 1.18 ×10⁻⁶ cm/s.

What about the SIF [2, 6] of the same molecule?
The SIF was 57% remaining.

And the “human Plasma stability” value (Plasma Stability; [7])?
The value was 28% remaining.
